Experimental data reported in ChEMBL document CHEMBL4340506, “Inhibition of a viral prolyl hydroxylase” (Bioorg Med Chem, 2019).
Activity calls are given as the source filed them. The calls are words filed in the database; no cut-off is given here. Where a SMILES comes first, the peptide text is derived from it. [ ]: non-standard residue; d: D form. Pro(cis-4-F) = O=C(O)[C@@H]1C[C@H](F)CN1; Hyp = O=C(O)[C@@H]1C[C@@H](O)CN1

Target: T1, Prolyl 4-hydroxylase (Paramecium bursaria Chlorella virus 1) (UniProt Q84406)
T1 sequence (whole entry): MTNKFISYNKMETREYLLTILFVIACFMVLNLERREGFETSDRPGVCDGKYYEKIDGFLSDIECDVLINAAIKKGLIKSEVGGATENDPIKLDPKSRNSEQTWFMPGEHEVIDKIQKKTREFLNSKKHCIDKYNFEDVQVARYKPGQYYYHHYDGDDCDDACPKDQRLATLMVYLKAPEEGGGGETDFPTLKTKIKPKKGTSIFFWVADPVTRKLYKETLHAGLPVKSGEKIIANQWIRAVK
Assay: Substrate activity at N-terminal His6-tagged recombinant Paramecium bursaria chlorella virus 1 CPH expressed in Escherichia coli Rosetta 2 (DE3) cells assessed as succinate production at 500 uM incubated for 60 s in presence of 2OG and in absence of L-ascorbate and using Fe2 as cofactor by 1H NMR spectroscopy

Structure (SMILES)	Activity
C[C@H](NC(=O)[C@@H]1CCCN1)C(=O)N1CCC[C@H]1C(=O)N[C@@H](CCCCN)C(=O)N1C[C@H](O)C[C@H]1C(=O)N[C@@H](C)C(=O)N1CCC[C@H]1C(=O)N[C@@H](CCCCN)C(=O)O (H-PAPK[Hyp]APK-OH)	Active

Target: T1, Prolyl 4-hydroxylase (Paramecium bursaria Chlorella virus 1)
Assay: Substrate activity at N-terminal His6-tagged recombinant Paramecium bursaria chlorella virus 1 CPH expressed in Escherichia coli Rosetta 2 (DE3) cells assessed as succinate production at 500 uM incubated for 60 s in presence of 2OG and L-ascorbate and using Fe2 as cofactor by 1H NMR spectroscopy

Structure (SMILES)	Activity
C[C@H](NC(=O)[C@@H]1CCCN1)C(=O)N1CCC[C@H]1C(=O)N[C@@H](CCCCN)C(=O)N1C[C@H](O)C[C@H]1C(=O)N[C@@H](C)C(=O)N1CCC[C@H]1C(=O)N[C@@H](CCCCN)C(=O)O (H-PAPK[Hyp]APK-OH)	Active

Target: Hypoxia-inducible factor 1-alpha inhibitor (Homo sapiens, UniProt Q9NWT6)
Sequence (Q9NWT6 whole entry): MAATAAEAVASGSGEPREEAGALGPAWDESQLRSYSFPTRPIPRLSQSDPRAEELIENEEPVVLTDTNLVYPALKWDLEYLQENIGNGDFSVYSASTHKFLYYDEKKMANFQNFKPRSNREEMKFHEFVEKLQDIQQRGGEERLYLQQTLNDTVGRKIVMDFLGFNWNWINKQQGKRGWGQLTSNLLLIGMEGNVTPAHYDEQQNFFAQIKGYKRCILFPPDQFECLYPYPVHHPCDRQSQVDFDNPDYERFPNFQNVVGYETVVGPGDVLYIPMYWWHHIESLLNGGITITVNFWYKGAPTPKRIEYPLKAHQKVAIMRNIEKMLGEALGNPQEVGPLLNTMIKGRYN
Assay: Inhibition of recombinant human FIH using 2OG as substrate and Fe2 as co-factor assessed as hydroxylation incubated for 15 mins in presence of L-ascorbate by LC-MS analysis

Structure (SMILES)	IC50
O=c1c(-n2ccnn2)c[nH]n1-c1cc(N2CCOCC2)ncn1 [MOLIDUSTAT]	31 µM

Target: T2, Prolyl 3-hydroxylase OGFOD1 (Homo sapiens, UniProt Q8N543)
T2 sequence (Q8N543 whole entry): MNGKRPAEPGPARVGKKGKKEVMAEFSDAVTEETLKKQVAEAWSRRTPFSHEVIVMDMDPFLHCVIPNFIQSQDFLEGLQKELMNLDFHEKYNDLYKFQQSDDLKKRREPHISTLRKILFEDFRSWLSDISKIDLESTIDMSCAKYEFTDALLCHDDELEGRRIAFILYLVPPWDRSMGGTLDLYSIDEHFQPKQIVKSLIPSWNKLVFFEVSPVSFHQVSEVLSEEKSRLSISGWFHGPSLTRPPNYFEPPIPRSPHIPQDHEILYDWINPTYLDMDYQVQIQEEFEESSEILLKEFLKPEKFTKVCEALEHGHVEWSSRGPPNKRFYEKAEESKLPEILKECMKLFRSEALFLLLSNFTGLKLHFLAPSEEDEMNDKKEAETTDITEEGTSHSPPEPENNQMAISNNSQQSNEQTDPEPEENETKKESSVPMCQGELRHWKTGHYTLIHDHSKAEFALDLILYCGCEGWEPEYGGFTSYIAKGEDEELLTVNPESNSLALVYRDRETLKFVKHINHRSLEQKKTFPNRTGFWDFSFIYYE
Assay: Inhibition of recombinant human OGFOD1 using 2OG as substrate and Fe2 as co-factor assessed as hydroxylation incubated for 15 mins in presence of L-ascorbate by MALDI-TOF MS analysis

Structure (SMILES)	IC50
CC(C)(C)OC(=O)c1ccc(-n2[nH]cc(-n3ccnn3)c2=O)nc1	5.1 µM
O=C(O)CNC(=O)c1c(O)n(C2CCCCC2)c(=O)n(C2CCCCC2)c1=O	2.1 µM
O=c1c(-n2ccnn2)c[nH]n1-c1cc(N2CCOCC2)ncn1 [MOLIDUSTAT]	< 1 µM

Target: T1, Prolyl 4-hydroxylase (Paramecium bursaria Chlorella virus 1)
Assay: Substrate activity at N-terminal His6-tagged recombinant Paramecium bursaria chlorella virus 1 CPH expressed in Escherichia coli Rosetta 2 (DE3) cells assessed as substrate hydroxylation at 100 uM incubated for 16 hrs in presence of 2OG by MALDI TOF MS analysis

Structure (SMILES)	Activity
C[C@H](NC(=O)[C@H](CCCCN)NC(=O)[C@@H]1C[C@@H](O)CN1C(=O)[C@H](C)NC(=O)[C@@H]1CCCN1)C(=O)N[C@@H](C)C(=O)N1CCC[C@H]1C(=O)N[C@@H](CCCCN)C(=O)O (H-PA[Hyp]KAAPK-OH)	inactive
C[C@H](NC(=O)[C@H](CS)NC(=O)[C@H](CCCCN)NC(=O)[C@@H]1C[C@@H](O)CN1C(=O)[C@H](C)NC(=O)[C@@H]1CCCN1)C(=O)N1CCC[C@H]1C(=O)N[C@@H](CCCCN)C(=O)O (H-PA[Hyp]KCAPK-OH)	inactive
C[C@H](NC(=O)[C@H](CC(=O)O)NC(=O)[C@H](CCCCN)NC(=O)[C@@H]1C[C@@H](O)CN1C(=O)[C@H](C)NC(=O)[C@@H]1CCCN1)C(=O)N1CCC[C@H]1C(=O)N[C@@H](CCCCN)C(=O)O (H-PA[Hyp]KDAPK-OH)	inactive
C[C@H](NC(=O)[C@H](CCC(=O)O)NC(=O)[C@H](CCCCN)NC(=O)[C@@H]1C[C@@H](O)CN1C(=O)[C@H](C)NC(=O)[C@@H]1CCCN1)C(=O)N1CCC[C@H]1C(=O)N[C@@H](CCCCN)C(=O)O (H-PA[Hyp]KEAPK-OH)	inactive
C[C@H](NC(=O)[C@H](Cc1ccccc1)NC(=O)[C@H](CCCCN)NC(=O)[C@@H]1C[C@@H](O)CN1C(=O)[C@H](C)NC(=O)[C@@H]1CCCN1)C(=O)N1CCC[C@H]1C(=O)N[C@@H](CCCCN)C(=O)O (H-PA[Hyp]KFAPK-OH)	inactive
C[C@H](NC(=O)CNC(=O)[C@H](CCCCN)NC(=O)[C@@H]1C[C@@H](O)CN1C(=O)[C@H](C)NC(=O)[C@@H]1CCCN1)C(=O)N1CCC[C@H]1C(=O)N[C@@H](CCCCN)C(=O)O (H-PA[Hyp]KGAPK-OH)	inactive
C[C@H](NC(=O)[C@H](Cc1cnc[nH]1)NC(=O)[C@H](CCCCN)NC(=O)[C@@H]1C[C@@H](O)CN1C(=O)[C@H](C)NC(=O)[C@@H]1CCCN1)C(=O)N1CCC[C@H]1C(=O)N[C@@H](CCCCN)C(=O)O (H-PA[Hyp]KHAPK-OH)	inactive
CC[C@H](C)[C@H](NC(=O)[C@H](CCCCN)NC(=O)[C@@H]1C[C@@H](O)CN1C(=O)[C@H](C)NC(=O)[C@@H]1CCCN1)C(=O)N[C@@H](C)C(=O)N1CCC[C@H]1C(=O)N[C@@H](CCCCN)C(=O)O (H-PA[Hyp]KIAPK-OH)	inactive
C[C@H](NC(=O)[C@H](CCCCN)NC(=O)[C@H](CCCCN)NC(=O)[C@@H]1C[C@@H](O)CN1C(=O)[C@H](C)NC(=O)[C@@H]1CCCN1)C(=O)N1CCC[C@H]1C(=O)N[C@@H](CCCCN)C(=O)O (H-PA[Hyp]KKAPK-OH)	inactive
CC(C)C[C@H](NC(=O)[C@H](CCCCN)NC(=O)[C@@H]1C[C@@H](O)CN1C(=O)[C@H](C)NC(=O)[C@@H]1CCCN1)C(=O)N[C@@H](C)C(=O)N1CCC[C@H]1C(=O)N[C@@H](CCCCN)C(=O)O (H-PA[Hyp]KLAPK-OH)	inactive
CSCC[C@H](NC(=O)[C@H](CCCCN)NC(=O)[C@@H]1C[C@@H](O)CN1C(=O)[C@H](C)NC(=O)[C@@H]1CCCN1)C(=O)N[C@@H](C)C(=O)N1CCC[C@H]1C(=O)N[C@@H](CCCCN)C(=O)O (H-PA[Hyp]KMAPK-OH)	inactive
C[C@H](NC(=O)[C@H](CC(N)=O)NC(=O)[C@H](CCCCN)NC(=O)[C@@H]1C[C@@H](O)CN1C(=O)[C@H](C)NC(=O)[C@@H]1CCCN1)C(=O)N1CCC[C@H]1C(=O)N[C@@H](CCCCN)C(=O)O (H-PA[Hyp]KNAPK-OH)	inactive
C[C@H](NC(=O)[C@H](CCC(N)=O)NC(=O)[C@H](CCCCN)NC(=O)[C@@H]1C[C@@H](O)CN1C(=O)[C@H](C)NC(=O)[C@@H]1CCCN1)C(=O)N1CCC[C@H]1C(=O)N[C@@H](CCCCN)C(=O)O (H-PA[Hyp]KQAPK-OH)	inactive
C[C@H](NC(=O)[C@H](CCCNC(=N)N)NC(=O)[C@H](CCCCN)NC(=O)[C@@H]1C[C@@H](O)CN1C(=O)[C@H](C)NC(=O)[C@@H]1CCCN1)C(=O)N1CCC[C@H]1C(=O)N[C@@H](CCCCN)C(=O)O (H-PA[Hyp]KRAPK-OH)	inactive
C[C@H](NC(=O)[C@H](CO)NC(=O)[C@H](CCCCN)NC(=O)[C@@H]1C[C@@H](O)CN1C(=O)[C@H](C)NC(=O)[C@@H]1CCCN1)C(=O)N1CCC[C@H]1C(=O)N[C@@H](CCCCN)C(=O)O (H-PA[Hyp]KSAPK-OH)	inactive
C[C@H](NC(=O)[C@@H]1CCCN1)C(=O)N1C[C@H](O)C[C@H]1C(=O)N[C@@H](CCCCN)C(=O)N[C@H](C(=O)N[C@@H](C)C(=O)N1CCC[C@H]1C(=O)N[C@@H](CCCCN)C(=O)O)[C@@H](C)O (H-PA[Hyp]KTAPK-OH)	inactive
CC(C)[C@H](NC(=O)[C@H](CCCCN)NC(=O)[C@@H]1C[C@@H](O)CN1C(=O)[C@H](C)NC(=O)[C@@H]1CCCN1)C(=O)N[C@@H](C)C(=O)N1CCC[C@H]1C(=O)N[C@@H](CCCCN)C(=O)O (H-PA[Hyp]KVAPK-OH)	inactive
C[C@H](NC(=O)[C@H](Cc1c[nH]c2ccccc12)NC(=O)[C@H](CCCCN)NC(=O)[C@@H]1C[C@@H](O)CN1C(=O)[C@H](C)NC(=O)[C@@H]1CCCN1)C(=O)N1CCC[C@H]1C(=O)N[C@@H](CCCCN)C(=O)O (H-PA[Hyp]KWAPK-OH)	inactive
C[C@H](NC(=O)[C@H](Cc1ccc(O)cc1)NC(=O)[C@H](CCCCN)NC(=O)[C@@H]1C[C@@H](O)CN1C(=O)[C@H](C)NC(=O)[C@@H]1CCCN1)C(=O)N1CCC[C@H]1C(=O)N[C@@H](CCCCN)C(=O)O (H-PA[Hyp]KYAPK-OH)	inactive
C[C@H](NC(=O)[C@@H]1CCCN1)C(=O)N1C[C@H](O)C[C@H]1C(=O)N[C@@H](CCCCN)C(=O)N1C[C@@H](F)C[C@H]1C(=O)N[C@@H](C)C(=O)N1CCC[C@H]1C(=O)N[C@@H](CCCCN)C(=O)O (H-PA[Hyp]K[Pro(cis-4-F)]APK-OH)	Active

Target: T3, Prolyl 4-hydroxylase (Paramecium bursaria Chlorella virus 1, UniProt Q84406)
T3 sequence (Q84406 whole entry): T1 sequence (whole entry)
Assay: Inhibition of N-terminal His6-tagged recombinant Paramecium bursaria chlorella virus 1 CPH expressed in Escherichia coli Rosetta 2 (DE3) cells pre-incubated for 5 mins before 2OG as substrate and Fe2 as co-factor addition in presence of L-ascorbate and measured after 5 mins MALDI TOF MS analysis

Structure (SMILES)	IC50	Ki
O=C(O)c1ccc(O)c2ncccc12	47.2 µM	–
O=C(O)C[C@H](O)C(=O)O	> 1000 µM	–
O=C(O)CC[C@@H](O)C(=O)O	> 500 µM	–
O=C(O)CC[C@H](O)C(=O)O	> 500 µM	–
CN(C)NC(=O)CCC(=O)O	> 100 µM	–
O=C(O)c1ccnc(C(=O)O)c1	5.3 µM	3.28 µM
O=C(O)CCNc1cc(N2CCc3ccccc3CC2)nc(-c2ccccn2)n1	15.9 µM	–
O=C(O)/C=C(/CC(=O)O)C(=O)O	> 1000 µM	–
CC(C)(C)OC(=O)c1ccc(-n2[nH]cc(-n3ccnn3)c2=O)nc1	2.5 µM	–
O=C(O)CNC(=O)c1ncc(-c2cccc(Cl)c2)cc1O	< 1 µM	0.28 µM
Cc1ccsc1C(NC(=O)c1ccccc1)c1cc(Cl)c2cccnc2c1O (stereo unspecified)	> 100 µM	–
CCCCCCCCOC(=O)c1ccc(O)c2ncccc12	> 100 µM	–
O=C(O)CNC(=O)c1c(O)n(C2CCCCC2)c(=O)n(C2CCCCC2)c1=O	13.4 µM	7.65 µM
O=C(O)CNC(=O)c1nc(Cl)c2ccccc2c1O	4.5 µM	0.71 µM
O=C(O)c1c[nH]c2c(ccc3cccnc32)c1=O	15.7 µM	–
O=C(O)CC(O)(CC(=O)O)C(=O)O [CITRIC ACID]	213 µM	–
O=C(O)/C=C/C(=O)O [FUMARIC ACID]	> 1000 µM	–
N[C@@H](CCC(=O)O)C(=O)O [GLUTAMIC ACID]	> 1000 µM	–
O=C(O)C[C@H](C(=O)O)[C@@H](O)C(=O)O [ISOCITRIC ACID]	284 µM	–
O=c1c(-n2ccnn2)c[nH]n1-c1cc(N2CCOCC2)ncn1 [MOLIDUSTAT]	26.8 µM	16.1 µM
O=C(O)CNC(=O)C(=O)O [N-OXALYLGLYCINE]	21.2 µM	48.7 µM
O=C(O)CC(=O)C(=O)O [OXALOACETATE]	> 1000 µM	–
CC(=O)C(=O)O [PYRUVATE]	> 1000 µM	–
O=C(O)CCC(=O)O [SUCCINIC ACID]	> 1000 µM	–
